Source: patent US6346535B1, “Fungicidal mixtures” (American Cyanamid Company, priority 1999, dated 2002)
Like-named read-outs stand apart in the source and are kept apart here.

Assays:
Format in all cases: in vivo
[1] = tested on: Blumeria graminis on wheat; test: Greenhouse trial, 4 day curative, Blumeria graminis on wheat; settings: compound alone
Procedure: The trials are carried out under greenhouse (Examples 1 to 18) or field conditions (Example 19) in residual or curative applications. The fungicides are applied in single treatments, or in a combination comprising a benzophenone of formula I and a compound selected from (A) through (E) as defined above. The compounds are applied in form of an aqueous spray mix obtained from a concentrated formulation or the technical material. […] Seed is planted in 6 cm diameter plastic pots and maintained in the greenhouse. […] When the primary leaf is fully expanded (in the case of cereals) or several leaves are present (in the case of dicots), formulated test compounds are sprayed with a three nozzle overhead fungicide sprayer to near run-off. Alternatively, a single nozzle overhead track sprayer is used for application of the compounds to cereals at a rate of 200 liters/ha (l/ha). Plants are then allowed to air-dry. […] Inoculation precedes treatment in the case of curative evaluations and follows treatment in case of residual evaluations. For inoculation of powdery mildew disease, plants are set up on greenhouse benches with bottom watering mats and inoculated by dusting them with conidia from infected plants. Between inoculation and treatment for curative evaluations and between treatment and inoculation for residual evaluations, plants are maintained in the greenhouse with bottom watering. For inoculation of non-powdery mildew diseases, an aqueous spore suspension of the pathogen is applied to the plant and the plants are kept 1-2 days in a moist infection chamber before being returned to the greenhouse where they are maintained by bottom watering. […] Disease on the foliage as percent leaf area with disease symptoms/signs is evaluated about 7 days after inoculation. In the case of wheat, the tips and bases of the leaves are excluded from the evaluation. [formula] […] Compounds are dissolved in acetone prior to addition of the water; the Tween 20 can be added through either the acetone or the water. Dilutions are made using the solvent/surfactant system. Formulated compounds are prepared using deionized water. Assessments of the diseases took place at the indicated day after the application of the compounds. Per cent infected leaf area infected was evaluated. […] Synergy of a fungicide mixture was determined by comparing the actual (observed) fungicidal activity of the mixture to the expected fungicidal activity of the mixture as calculated using the COLBY formula given hereinabove.

[2] = tested on: Blumeria graminis on wheat; test: Greenhouse trial, 3 day protective, Blumeria graminis on wheat; settings: compound alone
Description: (§1) The fungicides are applied in single treatments, or in a combination comprising a benzophenone of formula I and a compound selected from (A) through (E) as defined above. The compounds are applied in form of an aqueous spray mix obtained from a concentrated formulation or the technical material.
(§2) 1. Seed is planted in 6 cm diameter plastic pots and maintained in the greenhouse.
(§3) 2. When the primary leaf is fully expanded (in the case of cereals) or several leaves are present (in the case of dicots), formulated test compounds are sprayed with a three nozzle overhead fungicide sprayer to near run-off. Alternatively, a single nozzle overhead track sprayer is used for application of the compounds to cereals at a rate of 200 liters/ha (l/ha). Plants are then allowed to air-dry.
(§4) 3. Inoculation precedes treatment in the case of curative evaluations and follows treatment in case of residual evaluations. For inoculation of powdery mildew disease, plants are set up on greenhouse benches with bottom watering mats and inoculated by dusting them with conidia from infected plants. Between inoculation and treatment for curative evaluations and between treatment and inoculation for residual evaluations, plants are maintained in the greenhouse with bottom watering. For inoculation of non-powdery mildew diseases, an aqueous spore suspension of the pathogen is applied to the plant and the plants are kept 1-2 days in a moist infection chamber before being returned to the greenhouse where they are maintained by bottom watering.
(§5) 4. Disease on the foliage as percent leaf area with disease symptoms/signs is evaluated about 7 days after inoculation. In the case of wheat, the tips and bases of the leaves are excluded from the evaluation. [formula]
(§6) 1. Technical compounds are formulated in a solvent/surfactant system consisting of 5% acetone and 0.05% Tween 20 in deionized water. Compounds are dissolved in acetone prior to addition of the water; the Tween 20 can be added through either the acetone or the water. Dilutions are made using the solvent/surfactant system. Formulated compounds are prepared using deionized water.
(§7) Assessments of the diseases took place at the indicated day after the application of the compounds. Per cent infected leaf area infected was evaluated. The efficacy of the compounds/compounds mixtures to control the diseases was calculated by using the formula given above under item 4: […]
(§8) Synergy of a fungicide mixture was determined by comparing the actual (observed) fungicidal activity of the mixture to the expected fungicidal activity of the mixture as calculated using the COLBY formula given hereinabove.
Fungicidal Efficacy of the Mixture of BP-5+Triforine (3 Day Protective) Against Blumeria graminis on Wheat
Fungicidal Efficacy of the Mixture of BP-1+Triadimefon (3 Day Protective) Against Blumeria graminis on Wheat

[3] = tested on: Uncinula necator on vines; test: Greenhouse trial, 1 day residual, Uncinula necator on vines; settings: Table XVIII, compound alone
Procedure: (§9) The trials are carried out under greenhouse (Examples 1 to 18) or field conditions (Example 19) in residual or curative applications. The fungicides are applied in single treatments, or in a combination comprising a benzophenone of formula I and a compound selected from (A) through (E) as defined above. The compounds are applied in form of an aqueous spray mix obtained from a concentrated formulation or the technical material.
as §2, §3, §4, §5, §6, §7, §8
Fungicidal Efficacy of the Mixture of BP-4+AP-4 (1 Day Residual) Against Uncinula necator on Vines
The tank mixes were obtained from technical material of BP-4 and AP-4. The active ingredients, the type of formulations, the observed and expected efficacies with different rates are given in Table XVIII: […]

[4] = tested on: Puccinia recondita on wheat; test: Greenhouse trial, 4 day residual, Puccinia recondita on wheat; settings: Table VII, compound alone
How it was run: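 Wheat plants sprayed at primary-leaf stage with compounds, alone or in mixtures, in 5% acetone/0.05% Tween 20 water, then inoculated 4 days later with Puccinia recondita spore suspension and held 1-2 days in a moist chamber. Percent diseased leaf area scored about 7 days post-inoculation, excluding leaf tips and bases; efficacy calculated, synergy by Colby.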

[5] = tested on: Leptosphaeria nodorum on wheat; test: Greenhouse trial, 4 day residual, Leptosphaeria nodorum on wheat; settings: Table VIII, compound alone
Description: as §1, §2, §3, §4, §5, §6, §7, §8
Fungicidal Efficacy of the Mixture of BP-4+Other Fungicides (4 Day Residual) Against Leptosphaeria nodorum on Wheat

[6] = tested on: Erysiphe cichoracearum on cucumbers; test: Greenhouse trial, 4 day residual, Erysiphe cichoracearum on cucumbers; settings: for Observed Efficacy: Table VI; for pest or weed control at 0.4 ppm: dose rate 0.4 ppm; for pest or weed control at 10 ppm: dose rate 10 ppm; for pest or weed control at 50 ppm: dose rate 50 ppm
How it was run: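 Cucumber plants were sprayed to near run-off with compounds or mixtures (5% acetone/0.05% Tween 20 aqueous). Four days later they were inoculated by dusting with Erysiphe cichoracearum conidia. Percent diseased leaf area was assessed about 7 days after inoculation, and efficacy and Colby synergy were calculated from it.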

[7] = tested on: Blumeria graminis f. sp. tritici on wheat; test: Greenhouse trial, 2 day curative, Blumeria graminis f. sp. tritici on wheat; settings: Table XVII, compound alone
Procedure: as §9, §2, §3, §4, §5, §6, §7, §8
Fungicidal Efficacy of the Mixture of Different Benzophenones+Metconazole (2 Day Curative) Against Blumeria graminis f. sp. tritici on Wheat
The tank mixes were obtained from technical material of the benzophenones BP-2 and BP-4 and metconazole.

Cercospora beticola = test: Field trial against the sugar beet disease Cercospora beticola; settings: Table XIX, compound alone, dose rate 90 g/ha
Procedure: The trials are carried out under greenhouse (Examples 1 to 18) or field conditions (Example 19) in residual or curative applications. The fungicides are applied in single treatments, or in a combination comprising a benzophenone of formula I and a compound selected from (A) through (E) as defined above. The compounds are applied in form of an aqueous spray mix obtained from a concentrated formulation or the technical material. For the field study formulated benzophenones BP-1 through BP-4 and formulated compounds from (A) through (E) were used. The compounds are applied according to good agricultural practice in form of an aqueous spray mix obtained from concentrated formulation or the technical material at a rate of 400 l/ha. The disease control is evaluated according to the formula given for the greenhouse tests. Fungicidal Efficacy of the Mixture of BP-1+Metconazole in the Field Against the Sugar Beet Disease Cercospora beticola The tank mix was obtained from a SC formulation containing 100 g of BP-1 per liter and a SL formulation containing 60 g of metconazole per liter.

[8] = tested on: Pyrenophora teres on barley; test: Greenhouse trial, 4 day residual, Pyrenophora teres on barley; settings: Pyrenophora teres, 96 h, Table XIII (Example 13), 4 day residual, read-out: Observed Efficacy
Description: as §1, §2, §3, §4, §5, §6, §7, §8
Fungicidal Efficacy of the Mixture of BP-4+Other Fungicides (4 Day Residual) Against Pyrenophora teres on Barley

[9] = Golovinomyces cichoracearum, 96 h, Table XIV (Example 14), 4 day residual, read-out: Observed Efficacy
[10] = Golovinomyces cichoracearum, 96 h, Table XI, compound alone, read-out: Observed Efficacy

In the case of `Fc1cccc(Cl)c1-c1c(Cl)nc2ncnn2c1NC1CC1` [AP-1, 5-chloro-6-(2-chloro-6-fluorophenyl)-7-(cyclopropylamino)-[1,2,4]triazolo[1,5-a]pyrimidine], the “Observed Efficacy” value ([1]; Table I, dose rate 25 ppm) is reported as 0% and the “Observed Efficacy” value ([1]; Table I, dose rate 125 ppm) is reported as 0%.
In the case of `COc1cc(C)c(C(=O)c2c(Cl)cccc2Cl)c(OC)c1OC` [BP-5, 2,6-dichloro-2′-methyl-4′,5′,6′-trimethoxybenzophenone], the “Observed Efficacy” value ([2]; Table IV, dose rate 5 ppm) is reported as 12% and the “Observed Efficacy” value ([2]; Table IV, dose rate 25 ppm) is reported as 31%.
With `CC(Nc1c(-c2c(F)cc(F)cc2F)c(Cl)nc2ncnn12)C(F)(F)F` (centres unmarked) [AP-4, 5-chloro-6-(2,4,6-trifluorophenyl)-7-[2-(1,1,1-trifluoro)propylamino]-[1,2,4]triazolo[1,5-a]pyrimidine] the “Observed Efficacy” value ([3]; dose rate 0.03 ppm) was 13%, the “Observed Efficacy” value ([3]; dose rate 0.06 ppm) was 7% and the “Observed Efficacy” value ([3]; dose rate 0.12 ppm) was 32%. For the same compound, the “Observed Efficacy” value ([3]; dose rate 0.25 ppm) was 50%, the “Observed Efficacy” value ([3]; dose rate 0.5 ppm) was 76% and the “Observed Efficacy” value ([3]; dose rate 1 ppm) was 76%.
In the case of triforine, the “Observed Efficacy” value ([4]; dose rate 4 ppm) is reported as 0%, the “Observed Efficacy” value ([4]; dose rate 16 ppm) is reported as 7% and the “Observed Efficacy” value ([4]; dose rate 64 ppm) is reported as 90%. For the same compound, the “Observed Efficacy” value ([4]; dose rate 256 ppm) was 100%, the “Observed Efficacy” value ([2]; Table IV, dose rate 125 ppm) was 12% and the “Observed Efficacy” value ([5]; dose rate 1 ppm) was 0%. For the same compound, the “Observed Efficacy” value ([5]; dose rate 4 ppm) was 4%, the “Observed Efficacy” value ([5]; dose rate 16 ppm) was 31% and the “Observed Efficacy” value ([5]; dose rate 64 ppm) was 51%. The “Observed Efficacy” value ([5]; dose rate 256 ppm) was 85%, the “Observed Efficacy” value ([6]; compound alone, dose rate 4 ppm) was 1% and the “Observed Efficacy” value ([6]; compound alone, dose rate 16 ppm) was 44%. For the same compound, the “Observed Efficacy” value ([6]; compound alone, dose rate 64 ppm) was 79% and the “Observed Efficacy” value ([6]; compound alone, dose rate 256 ppm) was 96%.
With `CC(C)(C)C(=O)C(Oc1ccc(Cl)cc1)n1cncn1` (centres unmarked) [triadimefon] the “Observed Efficacy” value ([2]; Table V, dose rate 25 ppm) was 24%, the “Observed Efficacy” value ([1]; Table III, dose rate 25 ppm) was 12% and the “Observed Efficacy” value ([1]; Table III, dose rate 125 ppm) was 30%. It also gave a pest or weed control at 0.4 ppm [6, 9] of 0%, a pest or weed control at 2 ppm ([6]; Golovinomyces cichoracearum, 96 h, Table XIV (Example 14), 4 day residual, dose rate 2 ppm, read-out: Observed Efficacy) of 6% and a pest or weed control at 10 ppm [6, 9] of 23%. The pest or weed control at 50 ppm [6, 9] was 47%.
In the case of `CC1(C)CCC(Cc2ccc(Cl)cc2)C1(O)Cn1cncn1` (centres unmarked) [Metconazole], the “Observed Efficacy” value ([7]; dose rate 0.33 ppm) is reported as 0%, the “Observed Efficacy” value ([7]; dose rate 1 ppm) is reported as 2% and the “Observed Efficacy” value ([7]; dose rate 3 ppm) is reported as 7%. The “Observed Efficacy” value ([7]; dose rate 9 ppm) was 14%, the “Observed Efficacy” value ([7]; dose rate 27 ppm) was 40% and the “Observed Efficacy” value (Cercospora beticola) was 58%. It also gave a pest or weed control at 0.4 ppm ([8]; dose rate 0.4 ppm) of 0%, a pest or weed control at 10 ppm ([8]; dose rate 10 ppm) of 47% and a pest or weed control at 0.4 ppm [6, 10] of 2%. For the same compound, the pest or weed control at 10 ppm [6, 10] was 75% and the pest or weed control at 50 ppm [6, 10] was 99%.
With `CC1CCN(c2c(-c3c(F)cccc3Cl)c(Cl)nc3ncnn23)CC1` [AP-2, 5-chloro-6-(2-chloro-6-fluorophenyl)-7-(4-methylpiperid-1-yl)-[1,2,4]triazolo[1,5-a]pyrimidine] the “Observed Efficacy” value ([1]; Table II, dose rate 25 ppm) was 0% and the “Observed Efficacy” value ([1]; Table II, dose rate 125 ppm) was 8%.
